In series [1] the test system is Ambrosia artemisiifolia (AMBEL). As to the kind of experiment: Postemergence herbicide evaluation, percent reduction in plant size vs untreated control, 21 days after treatment. The note with it: post-emergence, 504 h, AMBEL, postemergence, read-out: Control/Injury; for pest or weed control at 140 g/ha: rate 140 g ae/ha; for pest or weed control at 280 g/ha: rate 280 g ae/ha. In kind it is in vivo, Ambrosia artemisiifolia (common ragweed). In short, it runs like this: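 Test compounds at 140 or 280 g ae/ha were applied by track sprayer (187 L/ha, spray solution containing acetone/DMSO, isopropanol, crop oil, surfactant) to 2–8 leaf plants, 3–4 replicates. Plants were kept in a greenhouse at 25–28 °C. Size reduction was scored against untreated controls at 21 days.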

The test system of series [2] is Amaranthus palmeri (AMAPA). Described as above. In kind it is in vivo, Amaranthus palmeri (Palmer amaranth). The conditions noted are these: post-emergence, 504 h, postemergence, read-out: Control/Injury; for pest or weed control at 140 g/ha: rate 140 g ae/ha; for pest or weed control at 280 g/ha: rate 280 g ae/ha. In short, it runs like this: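 Percent reduction in plant size relative to untreated plants, measured 21 days after track-sprayer application (187 L/ha) of 140 or 280 g ae/ha to Amaranthus palmeri at the 2 to 8 leaf stage. Randomized complete block, 3 or 4 replicates, greenhouse at 25 to 28° C; spray solution acetone/DMSO with isopropanol, water and crop oil concentrate.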

Series [3] in a line: Volatility of compounds measured by thermogravimetric analysis (TGA), rate of weight loss. The conditions noted are these: estimates of volatility. The series is classed as physicochemical. The text has this: Briefly, the rate of weight loss measured in units of […]g/min can be used to determine vapor pressure as shown by the simplified equation: wherein, k is the intrinsic volatility and A is the surface area, Referring now to FIG. 2. A graph of weight loss as function of time for solid samples produces a linear curve; the slope of the curve is the rate of weight loss. When this method is used to measure the volatility of aqueous salt concentrates or liquid concentrates, the water or acetone present in the sample volatilizes before the sample of interest. The first linear loss region of the curve is the loss of water or acetone and the second linear region is characteristic of the sample of interest. In order to illustrate the difference in volatility between some of the compounds disclosed herein and the widely used herbicide dicamba, data from both the compounds and dicamba are presented Table 3 and in FIG. 1.

The test system of a further series is Kochia scoparia (KCHSC). The series is described as follows: Postemergence herbicide evaluation, percent reduction in plant size vs untreated control, 21 days after treatment. In kind it is in vivo. The conditions noted are these: Bassia scoparia, post-emergence, 504 h, KCHSC, postemergence, 21 days after treatment, read-out: Control/Injury; for pest or weed control at 140 g/ha: rate 140 g ae/ha; for pest or weed control at 280 g/ha: rate 280 g ae/ha. In short, it runs like this: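 Values are percent reduction in plant size against an untreated control, measured 21 days after a single postemergence spray at 140 or 280 g ae/ha (187 L/ha, 276 kPa). Treatments used 3-4 randomized complete-block replicates on 2 to 8 leaf-stage plants kept in a 25-28 °C greenhouse, with compounds in acetone/DMSO-based solvent containing crop oil and surfactant.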

The test system of another series is Amaranthus rudis (AMATA). Described as above. The conditions noted are these: Amaranthus tuberculatus, post-emergence, 504 h, AMATA, postemergence, read-out: Control/Injury; for pest or weed control at 140 g/ha: rate 140 g ae/ha; for pest or weed control at 280 g/ha: rate 280 g ae/ha. In kind it is in vivo, Amaranthus rudis (tall water hemp). The procedure, abridged:
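Growth-reduction values are percent decrease in plant size relative to untreated plants, scored 21 days post-application. Amaranthus rudis (2-8 leaves) received postemergence sprays at 140 or 280 g ae/ha, 187 L/ha, in a mixed acetone/DMSO/water/isopropanol carrier with crop oil concentrate. Greenhouse conditions were 25-28° C, 50-60% RH; 3-4 randomized replicates.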

The subject of series [4] is Conyza canadensis (L.) (ERICA). The series is described as above. The series is classed as in vivo, Conyza canadensis (L.) (Horseweed). The conditions noted are these: Erigeron canadensis, post-emergence, 504 h, ERICA, postemergence, read-out: Control/Injury; for pest or weed control at 140 g/ha: rate 140 g ae/ha; for pest or weed control at 280 g/ha: rate 280 g ae/ha. In short, it runs like this:
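Track-sprayer applications (187 L/ha, 276 kPa) of 140 or 280 g ae/ha, technical material dissolved in acetone/DMSO then diluted with crop oil and surfactant-containing solvent, to greenhouse Conyza canadensis at 2-8 leaves. After 21 days, size reduction relative to untreated plants was recorded; 3-4 randomized replicates.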

Another series has as its system Glycine max. As to the kind of experiment: whole plant or invertebrate. The conditions noted are these: Glycine max, post-emergence, 504 h, read-out: Control/Injury. In short, it runs like this:
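Greenhouse soybean (25–28 °C, 16 h light) sprayed post-emergence at 2–8 leaf stage with 140 or 280 g ae/ha in acetone/DMSO-based spray solution with crop oil concentrate, 187 L/ha by track sprayer; 3–4 replicates, randomized blocks. Plant size reduction versus untreated control measured 21 days after treatment.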

Setting [5] is: R-AMAPA, percent reduction vs untreated control, 21 days after treatment.
Where [6] appears, read: percent reduction vs untreated control.
The mark [7] stands for this setting: percent reduction vs untreated control, 21 days after treatment.
Where [8] appears, read: percent reduction vs untreated, 21 days after treatment.

Each structure is given as a SMILES string. Read-outs that look alike come from different tables or passages of the source.

In the case of `COc1c(Cl)ccc(Cl)c1C(=O)O/N=C/c1ccco1` [Compound A-88], the pest or weed control at 140 g/ha in series [1] worked out at 70%; in series [2] (setting [5]) it was 67%; with Kochia scoparia (KCHSC) (setting [6]), 87%; with Amaranthus rudis (AMATA) it was 72%; in series [4] (setting [7]), 75%. Moreover, the pest or weed control at 280 g/ha in series [1] was found to be 82%; in series [2] (setting [5]), 68%; in the series on Kochia scoparia (KCHSC) (setting [6]) it was 94%; in the series with Amaranthus rudis (AMATA), 80%; in series [4] (setting [7]) it was 94%. For the same compound, the Volatility in series [3] is recorded as 0.35 ng/min. Further, the plant injury at 140 g/ha in the series on Glycine max was 10%. The plant injury at 280 g/ha in the series on Glycine max came out at 3%.
Regarding `COc1c(Cl)ccc(Cl)c1C(=O)N(C)OC` [Compound A-129], the pest or weed control at 140 g/ha in series [1] was 10%; in series [2] (AMAPA), 8%; with Kochia scoparia (KCHSC) (percent reduction vs untreated), 0%; in the series on Amaranthus rudis (AMATA) it was 20%; in series [4] it was 38%. For the same compound, the pest or weed control at 280 g/ha in series [1] turned out to be 15%; in series [2] (AMAPA), 20%; in the series with Kochia scoparia (KCHSC) (percent reduction vs untreated), 5%; in the series with Amaranthus rudis (AMATA), 23%; in series [4], 0%. Also, the Volatility in series [3] is 13.4 ng/min.
Consider `COc1c(Cl)ccc(Cl)c1C(=O)O/N=C(\SC)c1ccccc1` [Compound A-85], for which the pest or weed control at 140 g/ha in series [1] came to 67%; in series [2] (setting [5]), 68%; in the series with Kochia scoparia (KCHSC) (setting [6]) it was 95%; in the series with Amaranthus rudis (AMATA), 57%; in series [4] (setting [7]), 37%. Besides, the pest or weed control at 280 g/ha in series [1] worked out at 78%; in series [2] (setting [5]), 72%; with Kochia scoparia (KCHSC) (setting [6]), 97%; in the series on Amaranthus rudis (AMATA), 73%; in series [4] (setting [7]), 68%. Further, in series [3], the Volatility is listed as 0.28 ng/min. Moreover, the plant injury at 140 g/ha in the series on Glycine max came out at 5%. In addition, the plant injury at 280 g/ha in the series on Glycine max came to 7%.
For `COc1c(Cl)ccc(Cl)c1C(=O)O/N=C(/C)N` [Compound A-136], the pest or weed control at 140 g/ha came out at 87% in series [1]; 85% in series [2] (AMAPA); 76% in the series on Kochia scoparia (KCHSC) (percent reduction vs untreated); 68% in the series on Amaranthus rudis (AMATA); 94% in series [4] (setting [8]). Also, the pest or weed control at 280 g/ha in series [1] worked out at 96%; in series [2] (AMAPA), 90%; with Kochia scoparia (KCHSC) (percent reduction vs untreated), 94%; in the series with Amaranthus rudis (AMATA) it was 74%; in series [4] (setting [8]) it was 99%. Further, the Volatility in series [3] is reported as 0.086 ng/min.
On to `COc1c(Cl)ccc(Cl)c1C(=O)O/N=C(\N)c1ccc2ccccc2c1` [Compound A-138], for which the pest or weed control at 140 g/ha turned out to be 79% in series [1]; 73% in series [2] (AMAPA); 91% in the series with Kochia scoparia (KCHSC) (percent reduction vs untreated); 65% with Amaranthus rudis (AMATA); 75% in series [4] (setting [8]). Besides, the pest or weed control at 280 g/ha in series [1] was found to be 76%; in series [2] (AMAPA), 59%; in the series with Kochia scoparia (KCHSC) (percent reduction vs untreated) it was 91%; in the series with Amaranthus rudis (AMATA), 64%; in series [4] (setting [8]), 70%. In addition, the Volatility in series [3] is given as 0.008 ng/min.

These data come from patent US20240122179A1, “AUXINIC HERBICIDES AND METHODS OF USE THEREOF” (CORTEVA AGRISCIENCE LLC, priority 2021, published 2024).
